Assay results from PubChem BioAssay AID220 (DTP/NCI, 2004).
“And” between values parts separate entries of the source, which are not always exact repeats. Identical values can stand only once. Records with an inconclusive call do not appear.

System: CD8F1 mice, subcutaneous mammary adenocarcinoma, T/C%
Assay: NCI In Vivo Anticancer Drug Screen. Data for tumor model Mammary Adenocarcinoma CD8F1 (subcutaneous) in CD8F1
Conditions: higher = larger tumour
How it was run: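 Compound-treated versus vehicle-treated mice with transplantable tumors; survival or tumor size compared as T/C.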

[1] = endpoint: median tumor weight change, dose: 125.0 mg/kg/injection, schedule: Q01DX001 (ip), vehicle: saline with Tween-80
[2] = endpoint: median tumor weight change, dose: 250.0 mg/kg/injection, schedule: Q01DX001 (ip), vehicle: saline with Tween-80
[3] = endpoint: median tumor weight change, dose: 500.0 mg/kg/injection, schedule: Q01DX001 (ip), vehicle: saline with Tween-80
[4] = endpoint: median tumor weight (est.), dose: 12.5 mg/kg/injection, schedule: Q07DX005 (ip), vehicle: Klucel (hydroxypropylcellulose) (HPC)
[5] = endpoint: median tumor weight (est.), dose: 25.0 mg/kg/injection, schedule: Q07DX005 (ip), vehicle: Klucel (hydroxypropylcellulose) (HPC)
[6] = endpoint: median tumor weight (est.), dose: 50.0 mg/kg/injection, schedule: Q07DX005 (ip), vehicle: Klucel (hydroxypropylcellulose) (HPC)
[7] = endpoint: median tumor weight (est.), dose: 100.0 mg/kg/injection, schedule: Q07DX005 (ip), vehicle: Klucel (hydroxypropylcellulose) (HPC)
[8] = endpoint: median tumor weight (est.), dose: 50.0 mg/kg/injection, schedule: Q07DX005 (ip), vehicle: suspension in saline
[9] = endpoint: median tumor weight (est.), dose: 100.0 mg/kg/injection, schedule: Q07DX005 (ip), vehicle: suspension in saline

## CCCN1COC(OCC)C(C)(C)C1 (stereo not given)
endpoint: median tumor weight change, dose: 50.0 mg/kg/injection, schedule: Q01DX001 (ip), vehicle: saline with Tween-80
  T/C: 102 % of control
endpoint: median tumor weight change, dose: 100.0 mg/kg/injection, schedule: Q01DX001 (ip), vehicle: saline with Tween-80
  T/C: 85 % of control
[1]
  T/C: 66 % of control
endpoint: median tumor weight change, dose: 200.0 mg/kg/injection, schedule: Q01DX001 (ip), vehicle: saline with Tween-80
  T/C: 84 % of control
[2]
  T/C: 47 % of control
[3]
  T/C: 47 % of control

## Oc1c(Cl)cc(C(c2cc(Cl)c(O)c(Cl)c2)C(c2cc(Cl)c(O)c(Cl)c2)c2cc(Cl)c(O)c(Cl)c2)cc1Cl
[4]
  T/C: 540 % of control
[5]
  T/C: 341 % of control
[6]
  T/C: 294 % of control
[7]
  T/C: 84 % of control
endpoint: median tumor weight (est.), dose: 200.0 mg/kg/injection, schedule: Q07DX005 (ip), vehicle: Klucel (hydroxypropylcellulose) (HPC)
  T/C: 192 % of control

## Nc1ncn(C2CC(O)C(CO)O2)c(=O)n1 (stereo not given)
endpoint: median tumor weight (est.), dose: 0.37 mg/kg/injection, schedule: Q07DX005 (ip), vehicle: saline
  T/C: 37 % of control
endpoint: median tumor weight (est.), dose: 0.75 mg/kg/injection, schedule: Q07DX005 (ip), vehicle: saline
  T/C: 25 % of control
endpoint: median tumor weight (est.), dose: 1.5 mg/kg/injection, schedule: Q07DX005 (ip), vehicle: saline
  T/C: 9 % of control
endpoint: median tumor weight (est.), dose: 3.0 mg/kg/injection, schedule: Q07DX005 (ip), vehicle: saline
  T/C: 10 % of control

## NC(Cn1ccc(=O)c(O)c1)C(=O)O (stereo not given)
endpoint: median tumor weight change, dose: 100.0 mg/kg/injection, schedule: Q01DX001 (ip), vehicle: saline
  T/C: 82 % of control
endpoint: median tumor weight change, dose: 200.0 mg/kg/injection, schedule: Q01DX001 (ip), vehicle: saline
  T/C: 69 % of control
endpoint: median tumor weight change, dose: 400.0 mg/kg/injection, schedule: Q01DX001 (ip), vehicle: saline
  T/C: 52 % of control
endpoint: median tumor weight change, dose: 1600.0 mg/kg/injection, schedule: Q01DX001 (ip), vehicle: saline
  T/C: 72 % of control

## O=C1C(O)=C(c2ccccc2)C(=O)C(O)=C1c1ccccc1
endpoint: median tumor weight change, dose: 31.0 mg/kg/injection, schedule: Q01DX001 (ip), vehicle: saline with Tween-80
  T/C: 105 % of control
endpoint: median tumor weight change, dose: 62.0 mg/kg/injection, schedule: Q01DX001 (ip), vehicle: saline with Tween-80
  T/C: 58 % of control
[1]
  T/C: 104 % of control

## N/C(=N\OC(=O)Nc1ccc(CSc2ccc(Cl)cc2)o1)c1ccccn1
endpoint: median tumor weight change, dose: 62.0 mg/kg/injection, schedule: Q01DX001 (ip), vehicle: Klucel (hydroxypropylcellulose) (HPC)
  T/C: 64 % of control
endpoint: median tumor weight change, dose: 125.0 mg/kg/injection, schedule: Q01DX001 (ip), vehicle: Klucel (hydroxypropylcellulose) (HPC)
  T/C: 99 % of control
endpoint: median tumor weight change, dose: 250.0 mg/kg/injection, schedule: Q01DX001 (ip), vehicle: Klucel (hydroxypropylcellulose) (HPC)
  T/C: 80 % of control

## CC(=O)N(C)O
[1]
  T/C: 80 % of control
[2]
  T/C: 63 % of control
[3]
  T/C: 50 % of control

## COC(=O)[C@@H]1c2cc3c(c(O)c2[C@@H](OC)C[C@@]1(C)O)C(=O)c1c(O)cc2c(c1C3=O)OC1O[C@@]2(C)[C@H](O)[C@@H](N(C)C)[C@@H]1O
endpoint: median tumor weight (est.), dose: 12.5 mg/kg/injection, schedule: Q07DX005 (ip), vehicle: suspension in saline
  T/C: 73 % of control
[8]
  T/C: 61 % of control and 66 % of control
[9]
  T/C: 151 % of control

## CCc1nc(N)nc(N)c1-c1ccc(Cl)c(Cl)c1
endpoint: mean tumor weight (est.), dose: 40.0 mg/kg/injection, schedule: Q07DX003 (ip), vehicle: saline with Tween-80
  T/C: 107 % of control
endpoint: mean tumor weight (est.), dose: 50.0 mg/kg/injection, schedule: Q07DX003 (ip), vehicle: saline with Tween-80
  T/C: 100 % of control
endpoint: mean tumor weight (est.), dose: 60.0 mg/kg/injection, schedule: Q07DX003 (ip), vehicle: saline with Tween-80
  T/C: 93 % of control
endpoint: mean tumor weight (est.), dose: 60.0 mg/kg/injection, schedule: Q07DX004 (ip), vehicle: saline with Tween-80
  T/C: 35 % of control
endpoint: mean tumor weight (est.), dose: 80.0 mg/kg/injection, schedule: Q07DX004 (ip), vehicle: saline with Tween-80
  T/C: 50 % of control

## CN=C(N)N/N=C(\C)c1ccc2c(c1)Cc1ccccc1-2
[1]
  T/C: 60 % of control
[2]
  T/C: 55 % of control

## Cc1c(N)nc([C@H](CC(N)=O)NC[C@H](N)C(N)=O)nc1C(=O)N[C@H](C(=O)N[C@H](C)[C@@H](O)CC(=O)N[C@H](C(=O)NC(O[C@@H]1O[C@@H](C)[C@@H](N)[C@@H](O)[C@H]1O)C(O)c1nc(-c2nc(C(=O)NCCCCN)cs2)cs1)[C@@H](C)O)[C@@H](O[C@@H]1O[C@@H](CO)[C@@H](O)[C@H](O)[C@@H]1O[C@H]1O[C@H](CO)[C@@H](O)[C@H](OC(N)=O)[C@@H]1O)c1c[nH]cn1 (stereo not given in full)
endpoint: median tumor weight (est.), dose: 1.0 mg/kg/injection, schedule: Q07DX005 (ip), vehicle: saline
  T/C: 55 % of control
endpoint: median tumor weight (est.), dose: 2.0 mg/kg/injection, schedule: Q07DX005 (ip), vehicle: saline
  T/C: 14 % of control and 26 % of control
endpoint: median tumor weight (est.), dose: 4.0 mg/kg/injection, schedule: Q07DX005 (ip), vehicle: saline
  T/C: 18 % of control and 19 % of control
endpoint: median tumor weight (est.), dose: 8.0 mg/kg/injection, schedule: Q07DX005 (ip), vehicle: saline
  T/C: 5 % of control
endpoint: median tumor weight (est.), dose: 16.0 mg/kg/injection, schedule: Q07DX005 (ip), vehicle: saline
  T/C: 5 % of control
endpoint: median tumor weight (est.), dose: 32.0 mg/kg/injection, schedule: Q07DX005 (ip), vehicle: saline
  T/C: 5 % of control
endpoint: median tumor weight change, dose: 4.0 mg/kg/injection, schedule: Q01DX001 (ip), vehicle: saline
  T/C: 98 % of control
endpoint: median tumor weight change, dose: 8.0 mg/kg/injection, schedule: Q01DX001 (ip), vehicle: saline
  T/C: 55 % of control
endpoint: median tumor weight change, dose: 16.0 mg/kg/injection, schedule: Q01DX001 (ip), vehicle: saline
  T/C: 104 % of control
endpoint: median tumor weight change, dose: 32.0 mg/kg/injection, schedule: Q01DX001 (ip), vehicle: saline
  T/C: 52 % of control

## C[N+](C)(C)c1cc2c(nn1)Nc1ccccc1S2
[4]
  T/C: 86 % of control
[5]
  T/C: 106 % of control
[6]
  T/C: 107 % of control
[7]
  T/C: 116 % of control

## CC(C)CCCCCCCCCCCCC(=O)NCC(=O)NC1C(O)C(O)C(Nc2ncnc3nc[nH]c23)OC1C(O)CO (stereo not given)
endpoint: median tumor weight (est.), dose: 1.0 mg/kg/injection, schedule: Q07DX005 (ip), vehicle: Klucel (hydroxypropylcellulose) (HPC)
  T/C: 169 % of control
endpoint: median tumor weight (est.), dose: 2.0 mg/kg/injection, schedule: Q07DX005 (ip), vehicle: Klucel (hydroxypropylcellulose) (HPC)
  T/C: 51 % of control and 76 % of control

## O=C(O)CC(=O)O.[NH-]C1CCCCC1[NH-].[Pt+2] (stereo not given)
endpoint: median tumor weight (est.), dose: 20.0 mg/kg/injection, schedule: Q07DX005 (ip), vehicle: dextrose
  T/C: 14 % of control
endpoint: median tumor weight (est.), dose: 40.0 mg/kg/injection, schedule: Q07DX005 (ip), vehicle: dextrose
  T/C: 38 % of control
endpoint: median tumor weight (est.), dose: 80.0 mg/kg/injection, schedule: Q07DX005 (ip), vehicle: dextrose
  T/C: 67 % of control

## Cc1ccc(C(=O)[O][Hg][CH2]C2COC([CH2][Hg][O]C(=O)c3ccc(C)cc3)CO2)cc1 (stereo not given)
endpoint: median tumor weight (est.), dose: 6.25 mg/kg/injection, schedule: Q07DX005 (ip), vehicle: Klucel (hydroxypropylcellulose) (HPC)
  T/C: 60 % of control
[4]
  T/C: 72 % of control
[5]
  T/C: 117 % of control
[6]
  T/C: 57 % of control
[7]
  T/C: 162 % of control

## O=c1[nH]cnc2[nH]ncc12
endpoint: median tumor weight change, dose: 125.0 mg/kg/injection, schedule: Q01DX001 (ip), vehicle: suspension in saline
  T/C: 104 % of control
endpoint: median tumor weight change, dose: 250.0 mg/kg/injection, schedule: Q01DX001 (ip), vehicle: suspension in saline
  T/C: 71 % of control

## Cc1cc(O)c(N=Nc2ccc(C(=O)O)cc2)cc1C
endpoint: mean tumor weight (est.), dose: 200.0 mg/kg/injection, schedule: Q07DX001 (ip), vehicle: carboxymethylcellulose (CMC)
  T/C: 82 % of control
endpoint: mean tumor weight (est.), dose: 400.0 mg/kg/injection, schedule: Q07DX001 (ip), vehicle: carboxymethylcellulose (CMC)
  T/C: 74 % of control
endpoint: mean tumor weight, dose: 100.0 mg/kg/injection, schedule: Q07DX007 (ip), vehicle: saline
  T/C: 106 % of control
endpoint: mean tumor weight, dose: 200.0 mg/kg/injection, schedule: Q07DX007 (ip), vehicle: saline
  T/C: 20 % of control
endpoint: mean tumor weight, dose: 400.0 mg/kg/injection, schedule: Q07DX007 (ip), vehicle: saline
  T/C: 35 % of control
endpoint: median tumor weight (est.), dose: 25.0 mg/kg/injection, schedule: Q07DX005 (ip), vehicle: suspension in saline
  T/C: 98 % of control
[8]
  T/C: 90 % of control
[9]
  T/C: 98 % of control
endpoint: median tumor weight (est.), dose: 200.0 mg/kg/injection, schedule: Q07DX005 (ip), vehicle: suspension in saline
  T/C: 108 % of control
endpoint: median tumor weight (est.), dose: 400.0 mg/kg/injection, schedule: Q07DX005 (ip), vehicle: suspension in saline
  T/C: 98 % of control

## N=[N+]=CC(=O)CCC(NC(=O)C(CCC(=O)C=[N+]=N)NC(=O)CCC(N)C(=O)O)C(=O)O (stereo not given)
endpoint: median tumor weight (est.), dose: 3.12 mg/kg/injection, schedule: Q07DX004 (ip), vehicle: clinical formulation
  T/C: 34 % of control
endpoint: median tumor weight (est.), dose: 6.25 mg/kg/injection, schedule: Q07DX004 (ip), vehicle: clinical formulation
  T/C: 123 % of control
endpoint: median tumor weight (est.), dose: 12.5 mg/kg/injection, schedule: Q07DX004 (ip), vehicle: clinical formulation
  T/C: 50 % of control
endpoint: median tumor weight (est.), dose: 25.0 mg/kg/injection, schedule: Q07DX004 (ip), vehicle: clinical formulation
  T/C: 22 % of control
endpoint: median tumor weight (est.), dose: 50.0 mg/kg/injection, schedule: Q07DX004 (ip), vehicle: clinical formulation
  T/C: 15 % of control
endpoint: median tumor weight (est.), dose: 100.0 mg/kg/injection, schedule: Q07DX004 (ip), vehicle: clinical formulation
  T/C: 12 % of control
